According to patent US20090209620A1, “Direct Reversal Of The Suppressive Function Of CD4+Regulatory T Cells Via Toll-Like Receptor 8 Signaling” (priority 2005, published 2009):
Entries after “also recorded” stand apart in the source; their conditions may differ. In the oligonucleotide strings, read from the 5' end, every base follows the letter of its sugar. An asterisk marks phosphorothioate; unmarked linkages are phosphodiester. Other units and linkages are bracketed, terminal groups are in braces. A string of capitals states the bases alone. d = 2'-deoxy (DNA)

Assays:
Assay type in all cases: cell-based, human
[1] = system: Treg164 cells; test: Reversibility of siRNA-transduced Treg164 cells by Poly-G10 (functional proliferation assay)
Excerpt: Several siRNA sequences (19 nucleotides) for each gene were selected with use of computer-assisted programs. Oligonucleotides containing a siRNA sequence, 8 nucleotide spacers, and a polyT terminator sequence were annealed and then cloned into the HapI and XhoI sites of GFP-expressing pLentilox3.7 vector using methods well known in the art (See, e.g., D. A. Rubinson et al., Nat. Genet. 33, 401-6 (2003)). siRNA was under the control of a U6 promoter. The following DNA sequences used to construct siRNAs for IRAK4, MyD88, and TLR7, 8 and 9, were effective in silencing their corresponding genes:
5×10^6 293T cells were pre-seeded onto 100-mm dishes and transfected with 12 μg siRNA lentiviral DNA, 12 μg VSV-G plasmid DNA and 12 μg packaging viral CMV delta 8.9 plasmid, using Lipofectamine 2000. After the addition of fresh culture medium 8 h later, the cells were cultured for an additional 2-3 days. Viral supernatants were harvested, passed through a […] filter and concentrated by ultracentrifugation at 20,000 rpm for 2 h. Virus pellets were resuspended in a small volume of medium, and viral titers were determined by infecting 293T cells with serially diluted doses of virus. […] Transduction efficiency was analyzed at 3 or 4 days post-transduction, and the cells were sorted into GFP^+and GFP^−cells with a FACS ARIA sorter. […]

[2] = system: CD4+ Treg cells; test: Pretreatment of Treg cells, then proliferation assay with naive CD4+ T cells (without DCs); settings: Treg cells pretreated 3 days, washed, then mixed with naive CD4+ T cells
Method: C. Pretreatment of Treg cells: 1×10^6 Treg cells were cultured in medium containing CpG-A (3 ug/ml), CpG-B (3 ug/ml), LPS (100 ng/ml), TNF.-α (20 ng/ml), IFN-α (100 ng/ml) or IL-6 (100 ng/ml) for 3 days. After three washes, the pretreated Treg cells were cultured with näive CD4^+ T cells in anti-CD3 mAb-coated plates (without DCs) to determine their suppressive function. After 56 h of culture, [3H]thymidine was added at a final concentration of 1 uCi/well, and cultured for an additional 16 h. The incorporation of [^3H]thymidine was measured with a liquid scintillation counter.
To exclude the possibility that the purified naive CD4^+ T cells might have been contaminated with a small number of monocytes or DCs, cultured CD4^+ Treg cells (100% purity) were pretreated with CpG-A (SEQ ID NO: 1) for 3 days. After three washes, the pretreated CD4^+ Treg cells were mixed with naive CD4^+ T cells in anti-CD3 antibody-coated plates to evaluate their ability to suppress the proliferation of naive CD4^+ T cells.
To determine whether the CpG motif in CpG A confers the ability to reverse the suppressive function of CD4^+ Treg cells, CD4^+ Treg cell lines were pretreated for 3 days with CpG-A (SEQ ID NO: 1), non-CpG-A (CG changed to GC in CpG-A; SEQ ID NO: 3), CpG B (SEQ ID NO: 2) or non-CpG-B (CG changed to GC in CpG-B; SEQ ID NO: 4), and used them in proliferation assays following extensive washes.
Treg cells were pretreated with Poly-G2 (SEQ ID NO: 15) in different concentrations of chloroquine to examine whether acidification is required for the function of guanosine containing oligonucleotides. After extensive washes, the pretreated Treg cells were used for functional assays.

[3] = system: Treg102 cells; test: Proliferation and cytotoxicity of CFSE-labeled Treg cells (FACS); settings: 3 days
Method: The expression of CD4, CD25 and GITR on Treg cells was determined by FACS analysis after staining with specific antibodies (purchased from R&D Systems and BD Biosciences). To isolate naturally occurring CD4^+ CD25^+ Treg cells, CD4^+ T cells were stained with anti-CD4 and anti-CD25 antibodies conjugated to either PE or FITC. After washing, the cells were sorted by FACSARIA into CD4^+ CD25^+ and CD4^+ CD25^− T cell populations. For experiments with carboxyfluorescein diacetate succinimidyl ester (CFSE)-labeled cells, näive CD4^+ T cells or Treg cells ([…]) were stained with CFSE (4.5 uM) from Molecular Probes at 37° C. for 15 min. After several washes, the labeled cells were cultured in RPMI 1640 containing 10% human AB serum and IL-2 (300 IU/ml). To determine suppression of cell division by Treg cells, unlabeled Treg cells were added to CFSE-labeled näive T cells at an 1:1 ratio in 24-well plates precoated with OKT3 (2 ug/ml) in the presence or absence of CpG-A or Poly-G2 (3 ug/ml). After 3 days in culture, the cells were analyzed by FACS gating on the CFSE-labeled cells.
FIG. 5. […] After 3 days of culture, the proliferative profile was determined by FACS analysis. […]

Substance	reversibility of suppression by Poly-G10 ([1]; IRAK4 siRNA-transduced (GFP+) Treg164 cells)	reversibility of suppression by Poly-G10 ([1]; MyD88 siRNA-transduced (GFP+) Treg164 cells)	reversal of suppressive function of CD4+ Treg cells after pretreatment [2]	number of Treg cells (cytotoxicity) ([3]; presence or absence of CpG-A 3 μg/ml)	proliferation of CFSE-labeled Treg cells ([3]; with naive T cells, OKT3, IL-2, CpG-A 3 μg/ml)
Poly-G10: guanosine oligonucleotide with protected phosphorothioate backbone (DNA dG*dG*dG*dG*dG*dG*dG*dG*dG*dG)	lost the capacity to reverse their suppressive function	lost the capacity to reverse their suppressive function			
G* GGGGACGATCGTCG* G*G*G*G*G [CpG-A]			reverses their suppressive function; also recorded: reversed the suppressive effect; also recorded: reversed the suppressive activities of CD4^+ Treg cells equally well	did not change	do not proliferate
